Assay results: patent US4613355A, “Antibiotic having herbicidal activity” (Satoshi Omura, priority 1983, dated 1986)

What was measured:
Format in all cases: in vivo
Chamaecyparis obtusa = experiment: Foliage treatment of woody plants (Example 10); set-up: key to damage to the plants, scale 0 to 5: 0 indicates no effect; 5 indicates complete kill; settings: CH Chamaecyparis obtusa
From the text: (§1) Aqueous solutions containing Phosalacine (Na salt) at different concentrations and 0.1% of octylphenylpolyoxy ethanol as surfactant were applied at a rate of 1500 liter per hectare to woody plants of about 60-70 cm in height. 7 and 14 days after the foliage treatment, damage to the plants was visually assessed on a scale of from 0 to 5 (cf. Example 7).

Cryptomeria japonica = experiment: Foliage treatment of woody plants (Example 10); set-up: key to damage to the plants, scale 0 to 5: 0 indicates no effect; 5 indicates complete kill; settings: CP Cryptomeria japonica
From the text: as §1

Allium fistulosum = experiment: Foliage treatment (Example 8); set-up: key: 0 indicates no effect; 5 indicates complete kill; settings: Plant No. 27 Allium fistulosum
Protocol: (§2) Aqueous solutions of Phosalacine (Na salt) at different concentrations were applied at a rate of 1500 liters per hectare to naturally occurring plants or plants which were cultured on plates as shown in the following Table at certain stages of growth. […]

Miscanthus sinensis = experiment: Foliage treatment (Example 8); set-up: key: 0 indicates no effect; 5 indicates complete kill; settings: Plant No. 5 Miscanthus sinensis
Protocol: as §2

Brassica oleracea = experiment: Foliage treatment (Example 8); set-up: key: 0 indicates no effect; 5 indicates complete kill; settings: Plant No. 28 Brassica oleracea
Protocol: as §2

Euphonia supina = experiment: Foliage treatment (Example 8); set-up: key: 0 indicates no effect; 5 indicates complete kill; settings: Plant No. 36 Euphonia supina
Protocol: as §2

Artemisia princeps = experiment: Foliage treatment (Example 8); set-up: key: 0 indicates no effect; 5 indicates complete kill; settings: Plant No. 1 Artemisia princeps
Protocol: as §2

[1] = tested on: Eleucine indica var. carocana; experiment: Foliage treatment (Example 8); set-up: key: 0 indicates no effect; 5 indicates complete kill; settings: Plant No. 24 Eleucine indica var. carocana
Protocol: as §2

Glycine max = experiment: Foliage treatment (Example 8); set-up: key: 0 indicates no effect; 5 indicates complete kill; settings: Plant No. 34 Glycine max
Protocol: as §2

Cucumis sativus = experiment: Foliage treatment (Example 8); set-up: key: 0 indicates no effect; 5 indicates complete kill; settings: Plant No. 33 Cucumis sativus
Protocol: as §2

Arctium lappa = experiment: Foliage treatment (Example 8); set-up: key: 0 indicates no effect; 5 indicates complete kill; settings: Plant No. 30 Arctium lappa, 14 days
Protocol: as §2

Oxalis corniculata = experiment: Foliage treatment (Example 8); set-up: key: 0 indicates no effect; 5 indicates complete kill; settings: Plant No. 35 Oxalis corniculata
Protocol: as §2

[2] = tested on: various weeds and brush (overall evaluation); experiment: Foliage treatment of naturally growing weeds and brush (Example 9); set-up: key: 0 indicates no effect; 5 indicates complete kill; settings: OE overall evaluation, One month
From the text: (§3) Aqueous solutions of Phosalacine (Na salt) at different concentrations and 0.1% of octylphenylpolyoxy ethanol as surfactant were applied to the area where various weeds and brush were naturally growing at a rate of 1500 liter per hectare. One month after the foliage treatment, damage to weeds and brush was visually assessed on a scale of from 0 to 5 where 0 indicates no effect and 5 indicates complete kill as hereinbefore defined.

Castanea crenata = experiment: as above; set-up: key: 0 indicates no effect; 5 indicates complete kill; settings: Plant No. 8 Castanea crenata, One month
From the text: as §3

Pteridium aquilinum = experiment: as above; set-up: key: 0 indicates no effect; 5 indicates complete kill; settings: Plant No. 20 Pteridium aquilinum, One month
From the text: as §3

Rubus palmatus = experiment: as above; set-up: key: 0 indicates no effect; 5 indicates complete kill; settings: Plant No. 18 Rubus palmatus, One month
From the text: as §3

Smilax china = experiment: as above; set-up: key: 0 indicates no effect; 5 indicates complete kill; settings: Plant No. 17 Smilax china, One month
From the text: as §3

Zanthoxylum piperitum = experiment: as above; set-up: key: 0 indicates no effect; 5 indicates complete kill; settings: Plant No. 19 Zanthoxylum piperitum, One month
From the text: as §3

Viburnum dilatatum = experiment: as above; set-up: key: 0 indicates no effect; 5 indicates complete kill; settings: Plant No. 21 Viburnum dilatatum, One month
From the text: as §3

C[C@H](NC(=O)[C@H](C)NC(=O)[C@@H](N)CCP(C)(=O)[O-])C(=O)O.[Na+] [SF, reference compound]
damage to the plants, scale 0 to 5 (Chamaecyparis obtusa; 0.125%, 7 days): 0 | damage to the plants, scale 0 to 5 (Chamaecyparis obtusa; 0.125%, 14 days): 0 | damage to the plants, scale 0 to 5 (Chamaecyparis obtusa; 0.25%, 7 days): 0 | damage to the plants, scale 0 to 5 (Chamaecyparis obtusa; 0.25%, 14 days): 0 | damage to the plants, scale 0 to 5 (Chamaecyparis obtusa; 0.5%, 7 days): 0 | damage to the plants, scale 0 to 5 (Chamaecyparis obtusa; 0.5%, 14 days): 0 | damage to the plants, scale 0 to 5 (Cryptomeria japonica; 0.125%, 7 days): 0 | damage to the plants, scale 0 to 5 (Cryptomeria japonica; 0.125%, 14 days): 0 | damage to the plants, scale 0 to 5 (Cryptomeria japonica; 0.25%, 7 days): 0 | damage to the plants, scale 0 to 5 (Cryptomeria japonica; 0.25%, 14 days): 1 | damage to the plants, scale 0 to 5 (Cryptomeria japonica; 0.5%, 7 days): 0 | damage to the plants, scale 0 to 5 (Cryptomeria japonica; 0.5%, 14 days): 2 | damage to the plants, scale 0 to 5 (Allium fistulosum; 0.1%, 7 days): 3 | damage to the plants, scale 0 to 5 (Allium fistulosum; 0.1%, 14 days): 4 | damage to the plants, scale 0 to 5 (Allium fistulosum; 0.2%, 7 days): 5 | damage to the plants, scale 0 to 5 (Allium fistulosum; 0.2%, 14 days): 5 | damage to the plants, scale 0 to 5 (Miscanthus sinensis; 0.1%, 7 days): 3 | damage to the plants, scale 0 to 5 (Miscanthus sinensis; 0.1%, 14 days): 4 | damage to the plants, scale 0 to 5 (Miscanthus sinensis; 0.2%, 7 days): 4 | damage to the plants, scale 0 to 5 (Miscanthus sinensis; 0.2%, 14 days): 5 | damage to the plants, scale 0 to 5 (Brassica oleracea; 0.1%, 7 days): 3 | damage to the plants, scale 0 to 5 (Brassica oleracea; 0.1%, 14 days): 4 | damage to the plants, scale 0 to 5 (Brassica oleracea; 0.2%, 7 days): 4 | damage to the plants, scale 0 to 5 (Brassica oleracea; 0.2%, 14 days): 5 | damage to the plants, scale 0 to 5 (Euphonia supina; 0.1%, 7 days): 3 | damage to the plants, scale 0 to 5 (Euphonia supina; 0.1%, 14 days): 4 | damage to the plants, scale 0 to 5 (Euphonia supina; 0.2%, 7 days): 4 | damage to the plants, scale 0 to 5 (Euphonia supina; 0.2%, 14 days): 5 | damage to the plants, scale 0 to 5 (Artemisia princeps; 0.1%, 7 days): 3 | damage to the plants, scale 0 to 5 (Artemisia princeps; 0.1%, 14 days): 4 | damage to the plants, scale 0 to 5 (Artemisia princeps; 0.2%, 7 days): 4 | damage to the plants, scale 0 to 5 (Artemisia princeps; 0.2%, 14 days): 5 | damage to the plants, scale 0 to 5 ([1]; 0.1%, 7 days): 3 | damage to the plants, scale 0 to 5 ([1]; 0.1%, 14 days): 4 | damage to the plants, scale 0 to 5 ([1]; 0.2%, 7 days): 4 | damage to the plants, scale 0 to 5 ([1]; 0.2%, 14 days): 5 | damage to the plants, scale 0 to 5 (Glycine max; 0.1%, 7 days): 3 | damage to the plants, scale 0 to 5 (Glycine max; 0.1%, 14 days): 4 | damage to the plants, scale 0 to 5 (Glycine max; 0.2%, 7 days): 4 | damage to the plants, scale 0 to 5 (Glycine max; 0.2%, 14 days): 5 | damage to the plants, scale 0 to 5 (Cucumis sativus; 0.1%, 7 days): 3 | damage to the plants, scale 0 to 5 (Cucumis sativus; 0.1%, 14 days): 4 | damage to the plants, scale 0 to 5 (Cucumis sativus; 0.2%, 7 days): 4 | damage to the plants, scale 0 to 5 (Cucumis sativus; 0.2%, 14 days): 5 | damage to the plants, scale 0 to 5 (Arctium lappa; 0.1%): 4 | damage to the plants, scale 0 to 5 (Arctium lappa; 0.2%): 5 | damage to the plants, scale 0 to 5 (Oxalis corniculata; 0.1%, 7 days): 3 | damage to the plants, scale 0 to 5 (Oxalis corniculata; 0.1%, 14 days): 4 | damage to the plants, scale 0 to 5 (Oxalis corniculata; 0.2%, 7 days): 4 | damage to the plants, scale 0 to 5 (Oxalis corniculata; 0.2%, 14 days): 5 | damage to weeds and brush, scale 0 to 5 ([2]; 0.05%): 2 | damage to weeds and brush, scale 0 to 5 ([2]; 0.1%): 4 | damage to weeds and brush, scale 0 to 5 ([2]; 0.2%): 5 | damage to weeds and brush, scale 0 to 5 (Castanea crenata; 0.05%): 2 | damage to weeds and brush, scale 0 to 5 (Castanea crenata; 0.1%): 4 | damage to weeds and brush, scale 0 to 5 (Castanea crenata; 0.2%): 5 | damage to weeds and brush, scale 0 to 5 (Pteridium aquilinum; 0.05%): 2 | damage to weeds and brush, scale 0 to 5 (Pteridium aquilinum; 0.1%): 4 | damage to weeds and brush, scale 0 to 5 (Pteridium aquilinum; 0.2%): 5 | damage to weeds and brush, scale 0 to 5 (Rubus palmatus; 0.05%): 2 | damage to weeds and brush, scale 0 to 5 (Rubus palmatus; 0.1%): 4 | damage to weeds and brush, scale 0 to 5 (Rubus palmatus; 0.2%): 5 | damage to weeds and brush, scale 0 to 5 (Smilax china; 0.05%): 2 | damage to weeds and brush, scale 0 to 5 (Smilax china; 0.1%): 4 | damage to weeds and brush, scale 0 to 5 (Smilax china; 0.2%): 5 | damage to weeds and brush, scale 0 to 5 (Zanthoxylum piperitum; 0.05%): 2 | damage to weeds and brush, scale 0 to 5 (Zanthoxylum piperitum; 0.1%): 4 | damage to weeds and brush, scale 0 to 5 (Zanthoxylum piperitum; 0.2%): 5 | damage to weeds and brush, scale 0 to 5 (Viburnum dilatatum; 0.05%): 2 | damage to weeds and brush, scale 0 to 5 (Viburnum dilatatum; 0.1%): 4 | damage to weeds and brush, scale 0 to 5 (Viburnum dilatatum; 0.2%): 5
